Test [1] deals with PANC-1. The test is described as follows: Cytotoxicity against human Panc1 cell line by MTT assay. Type of test: functional, cell-based. On the technique in general: Tetrazolium dyes change colour on reduction, which living cells bring about.
The subject of test [2] is Panc203. The test is described as follows: Cytotoxicity against human Panc203 cell line by MTT assay. Format: functional, cell-based.
Test [3] concerns Panc1005. The test is described as follows: Cytotoxicity against human Panc1005 cell line by MTT assay. Type of test: functional, cell-based.
Test [4] relates to Hs 766. The test is described as follows: Cytotoxicity against human HS766 cell line by MTT assay. Format: functional, cell-based.
Test [5] deals with MIA PaCa-2. The test is described as follows: Cytotoxicity against human Miapaca2 cell line by MTT assay. Type of test: functional, cell-based.
The subject of test [6] is ASPC1. The test is described as follows: Cytotoxicity against human ASPC1 cell line by MTT assay. Type of test: functional, cell-based.
The test system of test [7] is Panc430. The test is described as follows: Cytotoxicity against human Panc430 cell line by MTT assay. Type of test: functional, cell-based.
Test [8] has as its system LNCaP. The test is described as follows: Cytotoxicity against human LnCaP cell line by MTT assay. Type of test: functional, cell-based.
Test [9] deals with CWR22R. The test is described as follows: Cytotoxicity against human CWR22R cell line by MTT assay. Format: functional, cell-based. The settings on record: 22Rv1.
The subject of test [10] is LAPC4. The test is described as follows: Cytotoxicity against human LAPC4 cell line by MTT assay. Type of test: functional, cell-based.
For test [11], the target named is Tubulin. The test is described as follows: Inhibition of tubulin polymerization. Format: protein-complex assay, Homo sapiens.
Test [12] has as its target Tubulin (Homo sapiens) (UniProt P68371+Q9H4B7+P0DPH7+P68366+Q13509+Q71U36+P04350+Q3ZCM7+P07437+P68363+Q9BQE3+Q6PEY2+Q13885+Q9BVA1+Q9BUF5). The test is described as follows: Inhibition of [3H]colchicine binding to tubulin at 5 uM. Format: protein-complex assay.
For test [13], the system named is MCF7. The test is described as follows: Induction of apoptosis in human MCF7 cell line at 10 nM after 48 hrs. Type of test: functional.
The test system of test [14] is MCF7. The test is described as follows: Induction of apoptosis in human MCF7 cell line at 100 nM after 48 hrs. Type of test: functional.
Test [15] relates to MCF7. The test is described as follows: Induction of apoptosis in human MCF7 cell line at 30 nM after 48 hrs. Format: functional.

For orientation: IC50 means the concentration needed to halve the response being measured. With `O=C(NC(=O)c1ccccc1)Nc1ccc(Sc2ncc(Br)cn2)cc1`, the IC50 in test [1] was over 10 µM; in [2], 7.5 µM; in [3], over 10 µM; in [4], 5.5 µM; in test [5] it was 5 µM; in test [6], over 10 µM. Besides, the IC50 in test [7] amounted to 2 µM.

For `O=C(NC(=O)c1ccccc1[N+](=O)[O-])Nc1ccc(Sc2ncccn2)cc1`, the figures for the IC50 in [8], in [9] and in [10] were 0.5 µM, 5 µM and 0.6 µM, respectively.

For the molecule `Nc1ccccc1C(=O)NC(=O)Nc1ccc(Oc2ncc(Br)cn2)cc1`, the IC50 is 3.5 µM in [1]; over 10 µM in test [2]; 0.75 µM in [8]; over 10 µM in [3]; 36 µM in test [11]; 0.27 µM in test [4]. Further, the IC50 in test [9] was 2 µM; in [5], 0.92 µM; in test [6], 5.2 µM; in [10], 0.75 µM; in test [7], over 10 µM.

In the case of `Nc1ccccc1C(=O)NC(=O)Nc1ccc(Sc2ncccn2)cc1`, the IC50 was 7.5 µM in test [1]; 5.5 µM in test [2]; over 10 µM in test [3]; 8 µM in test [4]; 7 µM in test [5]; 6 µM in test [6]. This molecule returned an IC50 in [7] of 6.5 µM.

A word on the inhibition: it is the change of the read-out against control, counted positive when it falls. For the molecule `O=C(NC(=O)c1ccccc1[N+](=O)[O-])Nc1ccc(Oc2ncc(Br)cn2)cc1`, the IC50 is 0.68 µM in [1]; over 10 µM in test [2]; 1 µM in [8]; over 10 µM in [3]; 4.7 µM in test [11]; 0.47 µM in test [4]. The IC50 in test [9] worked out at 5 µM; in [5], 0.74 µM; in test [6], 0.77 µM; in [10], 0.2 µM; in test [7] it was 10 µM. Besides, in test [12], the inhibition is 21%.

For `COc1cc([C@@H]2c3cc4c(cc3[C@H](O)[C@H]3COC(=O)[C@H]23)OCO4)cc(OC)c1OC`, the inhibition in test [12] was found to be 77%.

With `O=C(NC(=O)c1ccccc1[N+](=O)[O-])Nc1ccc(S(=O)(=O)c2ncc(Br)cn2)cc1`, the IC50 in test [1] is over 10 µM; in [2], over 10 µM; in test [8] it was 0.5 µM; in [3] it was over 10 µM; in test [4], over 10 µM; in test [9] it was over 10 µM. Further, the IC50 was 6.1 µM in test [5], over 10 µM in test [6], 4 µM in test [10] and over 10 µM in [7].

With `O=C(NC(=O)c1ccccc1[N+](=O)[O-])Nc1ccc([S+]([O-])c2ncc(Br)cn2)cc1` (configuration not stated), the IC50 worked out at 6.5 µM in [1]; 5.5 µM in test [2]; 5.5 µM in test [3]; 6.5 µM in test [4]; 8 µM in [5]; 2.5 µM in [6]. In addition, it took 5.5 µM to reach half-maximal inhibition in test [7] (IC50).

Take `O=C(NC(=O)c1ccccc1[N+](=O)[O-])Nc1ccc(Sc2ncc(Br)cn2)cc1`: the IC50 in test [1] worked out at 0.085 µM; in test [2], 0.7 µM; in test [8] it was 0.05 µM; in test [3] it was 10 µM; in [11] it was 2.1 µM; in [4], 0.088 µM. The IC50 in test [9] was determined as 0.05 µM; in [5], 0.086 µM; in test [6], 1 µM; in [10] it was 0.05 µM; in test [7], 0.09 µM. Besides, the Activity stood at 29.7% in [13], 53.6% in [14] and 51.2% in [15]. In test [12], this molecule yielded an inhibition of 17%.

With `O=C(NC(=S)Nc1ccc(Sc2ncc(Br)cn2)cc1)c1ccccc1`, the IC50 in test [1] was 9.5 µM; in test [2], over 10 µM; in [8], over 10 µM; in test [3], over 10 µM; in test [4] it was 8.5 µM; in test [9] it was over 10 µM. For the same molecule, the IC50 in test [5] was determined as 10 µM; in [6] it was 10 µM; in test [10], 6 µM; in test [7], 7.5 µM.

With `Cc1cc(NC(=O)NC(=O)c2ccccc2N(C)C)ccc1Oc1ncc(Br)cn1`, the 50% inhibitory concentration (IC50) came to 0.7 µM in test [1]; 0.95 µM in [2]; 0.5 µM in test [8]; 5 µM in test [3]; 1 µM in test [4]; 1 µM in test [9]. The IC50 in test [5] came out at 0.85 µM; in test [6], 0.85 µM; in test [10] it was 0.25 µM; in [7], 0.8 µM. Also, the figures for the Activity in test [13], in test [14] and in [15] were 16.1%, 27.7% and 19.5%, respectively.

Turning to `Nc1ccccc1C(=O)NC(=O)Nc1ccc(Sc2ncc(Br)cn2)cc1`, the IC50 in [1] is 0.09 µM; in test [2], 0.085 µM; in test [8], 0.5 µM; in test [3], 10 µM; in test [11], over 40 µM; in test [4], 0.7 µM. In addition, the IC50 in test [9] was determined as 0.5 µM; in test [5] it was 0.095 µM; in test [6], 0.45 µM; in [10] it was 0.1 µM; in test [7] it was 0.2 µM.

Source of the values: ChEMBL document CHEMBL1146091, “Benzoylphenylurea sulfur analogues with potent antitumor activity” (J Med Chem, 2006).
